From PMC2075511, “Molecular evolution of type VI intermediate filament proteins” (BMC Evolutionary Biology, 2007)

Molecular target: T1, HR domain of chicken transitin (HR) (Gallus gallus, UniProt Q90831)
T1 construct: entire C-terminal heptad repeat (HR) domain, more than 50 LQVEHGD repeats; T7- or His-tag fusion protein, expressed in bacteria
Assay: malachite green phosphate release
Assay type: biochemical
Conditions: 10 mM MgCl2, pH 7.5, 25°C

T1 sequence (Q90831 323-1840 limits assumed): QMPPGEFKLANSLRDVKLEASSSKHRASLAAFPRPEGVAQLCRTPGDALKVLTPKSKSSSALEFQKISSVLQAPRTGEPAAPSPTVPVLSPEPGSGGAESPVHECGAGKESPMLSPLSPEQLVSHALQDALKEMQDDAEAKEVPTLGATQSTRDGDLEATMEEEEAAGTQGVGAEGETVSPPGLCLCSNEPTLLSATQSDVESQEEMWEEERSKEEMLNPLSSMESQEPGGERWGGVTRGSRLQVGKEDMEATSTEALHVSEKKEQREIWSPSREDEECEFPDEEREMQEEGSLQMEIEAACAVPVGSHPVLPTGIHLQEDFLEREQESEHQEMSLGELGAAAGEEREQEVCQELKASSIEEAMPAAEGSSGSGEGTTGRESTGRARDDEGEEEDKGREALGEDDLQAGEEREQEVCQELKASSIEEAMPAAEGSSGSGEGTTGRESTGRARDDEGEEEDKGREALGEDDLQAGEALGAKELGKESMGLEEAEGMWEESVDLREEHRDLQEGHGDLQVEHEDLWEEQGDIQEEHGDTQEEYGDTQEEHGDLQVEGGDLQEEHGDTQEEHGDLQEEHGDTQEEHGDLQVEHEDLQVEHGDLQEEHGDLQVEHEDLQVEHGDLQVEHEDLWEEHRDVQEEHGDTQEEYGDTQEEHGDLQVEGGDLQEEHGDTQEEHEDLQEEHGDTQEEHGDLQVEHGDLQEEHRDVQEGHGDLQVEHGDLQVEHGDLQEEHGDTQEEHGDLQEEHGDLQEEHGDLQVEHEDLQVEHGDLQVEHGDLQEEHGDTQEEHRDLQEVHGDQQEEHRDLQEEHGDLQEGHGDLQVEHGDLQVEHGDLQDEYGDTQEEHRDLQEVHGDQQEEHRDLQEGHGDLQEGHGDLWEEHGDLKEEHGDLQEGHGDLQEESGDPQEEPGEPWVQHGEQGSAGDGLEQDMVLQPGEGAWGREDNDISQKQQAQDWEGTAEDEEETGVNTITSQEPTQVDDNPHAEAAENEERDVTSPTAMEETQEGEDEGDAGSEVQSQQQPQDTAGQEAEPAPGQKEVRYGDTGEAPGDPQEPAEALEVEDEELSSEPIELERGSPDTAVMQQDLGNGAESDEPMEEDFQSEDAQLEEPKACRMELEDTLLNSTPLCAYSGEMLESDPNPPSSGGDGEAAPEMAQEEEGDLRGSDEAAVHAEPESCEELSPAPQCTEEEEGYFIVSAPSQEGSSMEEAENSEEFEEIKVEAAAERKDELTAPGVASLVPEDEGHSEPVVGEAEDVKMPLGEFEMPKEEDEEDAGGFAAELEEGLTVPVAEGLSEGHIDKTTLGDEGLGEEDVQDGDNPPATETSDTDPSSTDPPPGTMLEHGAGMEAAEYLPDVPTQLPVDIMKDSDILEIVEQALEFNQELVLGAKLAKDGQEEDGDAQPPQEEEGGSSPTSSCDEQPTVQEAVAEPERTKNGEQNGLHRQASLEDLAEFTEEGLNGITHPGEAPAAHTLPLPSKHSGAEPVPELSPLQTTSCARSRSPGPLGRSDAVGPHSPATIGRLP

Row | Structure (SMILES) | malachite green phosphate release (1 mM ATP) | malachite green phosphate release (1 mM GTP)
1 | Nc1ncnc2c1ncn2[C@@H]1O[C@H](COP(=O)(O)OP(=O)(O)OP(=O)(O)O)[C@@H](O)[C@H]1O [ATP] | The HR domain of transitin has ATPase (Fig. 4a) as well as GTPase (Fig. 4b) activity | –
2 | Nc1nc2c(ncn2[C@@H]2O[C@H](COP(=O)(O)OP(=O)(O)OP(=O)(O)O)[C@@H](O)[C@H]2O)c(=O)[nH]1 [GTP] | – | The HR domain of transitin has ATPase (Fig. 4a) as well as GTPase (Fig. 4b) activity
